Measurements from US9611251B2, “Substituted piperidine compounds and their use as orexin receptor modulators” (Janssen Pharmaceutica NV, priority 2013, dated 2017).

Assays:
rat orexin 1 receptor = rat orexin 1 receptor (Rattus norvegicus, UniProt P56718); assay: Rat orexin 1 receptor radioligand binding; conditions: rat orexin 1 receptor radioligand binding; averages of 2-20 runs; read-out: rOX1 Ki
Method in brief: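 Cell-suspension competition binding used 4 nM final tritiated thiazolyl-pyrrolidinyl-methanone radioligand in PBS, ≤0.1% DMSO, with 10 µM almorexant defining nonspecific binding. Filter-bound radioactivity was counted in triplicate. IC50 came from one-site competition fits and was converted to Ki using the predetermined Kd.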

human orexin 1 receptor = human orexin 1 receptor (Homo sapiens, UniProt O43613); assay: Human orexin 1 receptor radioligand binding; conditions: human orexin 1 receptor radioligand binding; averages of 2-20 runs; read-out: hOX1 Ki
human orexin 2 receptor = human orexin 2 receptor (Homo sapiens (Human), UniProt O43614); assay: Human orexin 2 receptor radioligand binding ([3H]-EMPA); conditions: averages of 2-20 runs, read-out: hOX2 Ki
Method in brief: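 Competition binding using homogenized HEK293 cells stably expressing human orexin 2 receptor, [3H]-EMPA at 2 nM final and ≤0.1% DMSO; nonspecific binding set with 10 μM almorexant. Filter-bound radioactivity counted by scintillation; one-site competition IC50 converted to Ki using pre-determined Kd, compounds run in triplicate.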

Sequence of human orexin 2 receptor (O43614 whole entry): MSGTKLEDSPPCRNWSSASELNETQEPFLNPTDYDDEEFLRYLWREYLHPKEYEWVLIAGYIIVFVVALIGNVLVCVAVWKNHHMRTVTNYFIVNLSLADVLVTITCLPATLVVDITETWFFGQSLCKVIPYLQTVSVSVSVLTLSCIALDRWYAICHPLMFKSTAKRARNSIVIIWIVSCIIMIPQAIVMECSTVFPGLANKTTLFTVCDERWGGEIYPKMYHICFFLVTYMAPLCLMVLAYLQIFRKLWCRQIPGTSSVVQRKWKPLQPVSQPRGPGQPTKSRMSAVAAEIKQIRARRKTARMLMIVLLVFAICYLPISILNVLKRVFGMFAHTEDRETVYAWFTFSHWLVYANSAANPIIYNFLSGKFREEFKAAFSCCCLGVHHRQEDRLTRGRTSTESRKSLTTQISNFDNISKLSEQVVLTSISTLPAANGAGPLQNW

| Ki (rat orexin 1 receptor) [nM] | Ki (human orexin 1 receptor) [nM] | Ki (human orexin 2 receptor) [nM] | SMILES |
| --- | --- | --- | --- |
| 49 | 27 | > 10000 | Cc1cnc(-n2nccn2)c(C(=O)N2CCC[C@@H](Oc3ncc(C(F)(F)F)cc3F)[C@@H]2C)c1 [Example 157, ((2S,3R)-3-((3-fluoro-5-(trifluoromethyl)pyridin-2-yl)oxy)-2-methylpiperidin-1-yl)(5-methyl-2-(2H-1,2,3-triazol-2-yl)pyridin-3-yl)methanone] |
| 36 | 34 | 575 | Cc1cccc(C(=O)N2CCC[C@@H](Oc3ncc(C(F)(F)F)cc3F)[C@@H]2C)c1-n1nccn1 [Example 158, ((2S,3R)-3-((3-fluoro-5-(trifluoromethyl)pyridin-2-yl)oxy)-2-methylpiperidin-1-yl)(3-methyl-2-(2H-1,2,3-triazol-2-yl)phenyl)methanone] |
| 60 | 14 | 1550 | C[C@H]1[C@H](Oc2ncc(C(F)(F)F)cc2F)CCCN1C(=O)c1cccc(F)c1-n1nccn1 [Example 159, (3-fluoro-2-(2H-1,2,3-triazol-2-yl)phenyl)((2S,3R)-3-((3-fluoro-5-(trifluoromethyl)pyridin-2-yl)oxy)-2-methylpiperidin-1-yl)methanone] |
| 23 | 22 | 620 | Cc1ccc(-n2nccn2)c(C(=O)N2CCC[C@@H](Oc3ncc(C(F)(F)F)cc3F)[C@@H]2C)n1 [Example 160, ((2S,3R)-3-((3-fluoro-5-(trifluoromethyl)pyridin-2-yl)oxy)-2-methylpiperidin-1-yl)(6-methyl-3-(2H-1,2,3-triazol-2-yl)pyridin-2-yl)methanone] |
| 226 | 395 | 3200 | C[C@H]1[C@H](Oc2ncc(Cl)cn2)CCCN1C(=O)c1cccc(F)c1-n1nccn1 [Example 161, ((2S,3R)-3-((5-chloropyrimidin-2-yl)oxy)-2-methylpiperidin-1-yl)(3-fluoro-2-(2H-1,2,3-triazol-2-yl)phenyl)methanone] |
| 144 | 230 | 3800 | Cc1ccc(-n2nccn2)c(C(=O)N2CCC[C@@H](Oc3ncc(Cl)cn3)[C@@H]2C)n1 [Example 164, ((2S,3R)-3-((5-chloropyrimidin-2-yl)oxy)-2-methylpiperidin-1-yl)(6-methyl-3-(2H-1,2,3-triazol-2-yl)pyridin-2-yl)methanone] |
| 59 | 77 | 4400 | C[C@H]1[C@H](Oc2ncc(C(F)(F)F)cn2)CCCN1C(=O)c1ccccc1-c1ncc(F)cn1 [Example 165, (2-(5-fluoropyrimidin-2-yl)phenyl)((2S,3R)-2-methyl-3-((5-(trifluoromethyl)pyrimidin-2-yl)oxy)piperidin-1-yl)methanone] |
| 97 | 124 | 3100 | C[C@H]1[C@H](Oc2cnc(C(F)(F)F)cn2)CCCN1C(=O)c1ccccc1-c1ncc(F)cn1 [Example 166, (2-(5-fluoropyrimidin-2-yl)phenyl)((2S,3R)-2-methyl-3-((5-(trifluoromethyl)pyrazin-2-yl)oxy)piperidin-1-yl)methanone] |
| 30 | 28 | 1800 | Cc1cccc(C(=O)N2CCC[C@@H](Oc3ncc(C(F)(F)F)cn3)[C@@H]2C)c1-c1ncccn1 [Example 167, (3-methyl-2-(pyrimidin-2-yl)phenyl)((2S,3R)-2-methyl-3-((5-(trifluoromethyl)pyrimidin-2-yl)oxy)piperidin-1-yl)methanone] |
| 29 | 25 | 951 | C[C@H]1[C@H](Oc2cnc(C(F)(F)F)cn2)CCCN1C(=O)c1ccccc1-c1ncccn1 [Example 168, ((2S,3R)-2-methyl-3-((5-(trifluoromethyl)pyrazin-2-yl)oxy)piperidin-1-yl)(2-(pyrimidin-2-yl)phenyl)methanone] |
| 32 | 23 | 1200 | C[C@H]1[C@H](Oc2ncc(C(F)(F)F)cn2)CCCN1C(=O)c1ccccc1-c1ncccn1 [Example 169, ((2S,3R)-2-methyl-3-((5-(trifluoromethyl)pyrimidin-2-yl)oxy)piperidin-1-yl)(2-(pyrimidin-2-yl)phenyl)methanone] |
| 48 | 49 | 2800 | Cc1cccc(C(=O)N2CCC[C@@H](Oc3ncc(C(F)(F)F)cn3)[C@@H]2C)c1-c1ncc(F)cn1 [Example 170, (2-(5-fluoropyrimidin-2-yl)-3-methylphenyl)((2S,3R)-2-methyl-3-((5-(trifluoromethyl)pyrimidin-2-yl)oxy)piperidin-1-yl)methanone] |
| 34 | 29 | 1100 | Cc1cccc(C(=O)N2CCC[C@@H](Oc3cnc(C(F)(F)F)cn3)[C@@H]2C)c1-c1ncccn1 [Example 171, (3-methyl-2-(pyrimidin-2-yl)phenyl)((2S,3R)-2-methyl-3-((5-(trifluoromethyl)pyrazin-2-yl)oxy)piperidin-1-yl)methanone] |
| 124 | 188 | 4400 | C[C@H]1[C@H](Oc2ncc(C(F)(F)F)cn2)CCCN1C(=O)c1cc(F)ccc1-c1ncco1 [Example 175, (5-fluoro-2-(oxazol-2-yl)phenyl)((2S,3R)-2-methyl-3-((5-(trifluoromethyl)pyrimidin-2-yl)oxy)piperidin-1-yl)methanone] |
| 238 | 166 | > 10000 | Cc1cnc(-n2nccn2)c(C(=O)N2CCC[C@@H](Oc3cnc(C(F)(F)F)cn3)[C@@H]2C)c1 [Example 177, (5-methyl-2-(2H-1,2,3-triazol-2-yl)pyridin-3-yl)((2S,3R)-2-methyl-3-((5-(trifluoromethyl)pyrazin-2-yl)oxy)piperidin-1-yl)methanone] |
| 100 | 68 | 1900 | C[C@H]1[C@H](Oc2cnc(C(F)(F)F)cn2)CCCN1C(=O)c1cc(F)ccc1-c1ncco1 [Example 179, (5-fluoro-2-(oxazol-2-yl)phenyl)((2S,3R)-2-methyl-3-((5-(trifluoromethyl)pyrazin-2-yl)oxy)piperidin-1-yl)methanone] |
| 120 | 124 | > 10000 | Cc1cnc(-c2ncccn2)c(C(=O)N2CCC[C@@H](Oc3ccc(C(F)(F)F)cn3)[C@@H]2C)c1 [Example 211, (5-methyl-2-(pyrimidin-2-yl)pyridin-3-yl)((2S,3R)-2-methyl-3-((5-(trifluoromethyl)pyridin-2-yl)oxy)piperidin-1-yl)methanone] |
| 45 | 132 | 915 | C[C@H]1[C@H](Oc2ccc(C(F)(F)F)cn2)CCCN1C(=O)c1c(F)cccc1-c1ncccn1 [Example 212, (2-fluoro-6-(pyrimidin-2-yl)phenyl)((2S,3R)-2-methyl-3-((5-(trifluoromethyl)pyridin-2-yl)oxy)piperidin-1-yl)methanone] |
| 23 | 68 | 217 | Cc1ccc(-c2ncccn2)c(C(=O)N2CCC[C@@H](Oc3ccc(C(F)(F)F)cn3)[C@@H]2C)n1 [Example 213, ((2S,3R)-2-methyl-3-((5-(trifluoromethyl)pyridin-2-yl)oxy)piperidin-1-yl)(6-methyl-3-(pyrimidin-2-yl)pyridin-2-yl)methanone] |
| 38 | 78 | 5400 | Cc1cnc(-n2nccn2)c(C(=O)N2CCC[C@@H](Oc3ccc(Cl)cn3)[C@@H]2C)c1 [Example 214, ((2S,3R)-3-((5-chloropyridin-2-yl)oxy)-2-methylpiperidin-1-yl)(5-methyl-2-(2H-1,2,3-triazol-2-yl)pyridin-3-yl)methanone] |
| 12 | 35 | 374 | Cc1ccc(-n2nccn2)c(C(=O)N2CCC[C@@H](Oc3ccc(Cl)cn3)[C@@H]2C)n1 [Example 215, ((2S,3R)-3-((5-chloropyridin-2-yl)oxy)-2-methylpiperidin-1-yl)(6-methyl-3-(2H-1,2,3-triazol-2-yl)pyridin-2-yl)methanone] |
| 52 | 89 | 8200 | Cc1cnc(C(=O)N2CCC[C@@H](Oc3ccc(Cl)cn3)[C@@H]2C)c(-c2ncccn2)c1 [Example 216, ((2S,3R)-3-((5-chloropyridin-2-yl)oxy)-2-methylpiperidin-1-yl)(5-methyl-3-(pyrimidin-2-yl)pyridin-2-yl)methanone] |
| 177 | 154 | 8900 | Cc1cnc(-c2ncccn2)c(C(=O)N2CCC[C@@H](Oc3ccc(Cl)cn3)[C@@H]2C)c1 [Example 217, ((2S,3R)-3-((5-chloropyridin-2-yl)oxy)-2-methylpiperidin-1-yl)(5-methyl-2-(pyrimidin-2-yl)pyridin-3-yl)methanone] |
| 26 | 29 | 495 | C[C@H]1[C@H](Oc2ccc(Cl)cn2)CCCN1C(=O)c1ncccc1-c1ncccn1 [Example 218, ((2S,3R)-3-((5-chloropyridin-2-yl)oxy)-2-methylpiperidin-1-yl)(3-(pyrimidin-2-yl)pyridin-2-yl)methanone] |
| 51 | 55 | 1300 | CCOc1ccc(C)nc1C(=O)N1CCC[C@@H](Oc2ccc(C(F)(F)F)cn2)[C@@H]1C [Example 219, (3-ethoxy-6-methylpyridin-2-yl)((2S,3R)-2-methyl-3-((5-(trifluoromethyl)pyridin-2-yl)oxy)piperidin-1-yl)methanone] |
